Among the test systems are A498 renal; CCRF-CEM leukemia; HCT-15 colon; K-562 leukemia; MCF7 breast; MDA-MB-435; MOLT-4 leukemia; NCI-H460 lung; NCI-H522 lung; NCI/ADR-RES ovarian; SF-295 CNS; SK-MEL-2 melanoma; SK-MEL-28 melanoma; SN12C renal; TK-10 renal; UACC-62 melanoma; HOP-92 NSCLC; IGROV1 ovarian; OVCAR-8 ovarian; LOX IMVI melanoma.
Holding throughout (assay): NCI anticancer screen, dose series, 48 h

The source of these data is PubChem BioAssay (NCI).

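48-hour exposure; five concentrations; linearly interpolated endpoints. TGI marks complete inhibition of growth.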 Some results are limits rather than exact numbers.

On to `CCOC(=O)CCC(NC(=O)Cc1ccc(Nc2nc3ccccc3nc2-c2cccs2)cc1)C(=O)OCC` (stereo unspecified), for which the TGI in the test with A498 renal, with CCRF-CEM leukemia, with HCT-15 colon, in the test on K-562 leukemia, in the test with MCF7 breast and with MDA-MB-435 was more than 100 µM throughout. Also, the TGI in the test with MOLT-4 leukemia, with NCI-H460 lung, in the test with NCI-H522 lung, in the test on NCI/ADR-RES ovarian, with SF-295 CNS and in the test on SK-MEL-2 melanoma was more than 100 µM each time. The TGI in the test on SK-MEL-28 melanoma was more than 100 µM; in the test on SN12C renal it was more than 100 µM; with TK-10 renal, 84.5 µM; in the test with UACC-62 melanoma, more than 100 µM.
For the compound `O=C1c2cccnc2S(=O)(=O)N1c1ccc(Oc2ccccc2)cc1`, the TGI with A498 renal, in the test with CCRF-CEM leukemia, with HCT-15 colon, in the test with HOP-92 NSCLC, in the test on IGROV1 ovarian and in the test with K-562 leukemia was more than 100 µM in each case. In addition, the TGI with MCF7 breast, in the test with MDA-MB-435, in the test with MOLT-4 leukemia, in the test on NCI-H460 lung, in the test on NCI-H522 lung and in the test with NCI/ADR-RES ovarian was more than 100 µM throughout. Further, the TGI in the test with OVCAR-8 ovarian, in the test on SF-295 CNS, in the test with SK-MEL-2 melanoma, with SK-MEL-28 melanoma, in the test on SN12C renal and in the test on UACC-62 melanoma was more than 100 µM each time.
In the case of `C1=NCCN2CCN(CCN=Cc3ccccc3OCc3cccc(n3)COc3ccccc31)CC2`, the TGI with A498 renal was more than 50 µM; with CCRF-CEM leukemia, more than 50 µM; in the test with HCT-15 colon, 21.4 µM; with HOP-92 NSCLC, 41.6 µM; with IGROV1 ovarian, 37.2 µM; in the test on K-562 leukemia, more than 50 µM. Also, the TGI with MCF7 breast is 9.29 µM; in the test on MDA-MB-435 it was 2.22 µM; with MOLT-4 leukemia, 34.3 µM; in the test on NCI-H460 lung, more than 50 µM; with NCI-H522 lung it was more than 50 µM; in the test with NCI/ADR-RES ovarian, 17.2 µM. Further, the TGI with OVCAR-8 ovarian is 35.5 µM; in the test on SF-295 CNS, 14.1 µM; in the test with SK-MEL-2 melanoma it was more than 50 µM; with SK-MEL-28 melanoma it was more than 50 µM; in the test on SN12C renal, 26.3 µM; with TK-10 renal it was 24.9 µM. The TGI in the test with UACC-62 melanoma stood at 7.8 µM.
In the case of `CCOc1ccc(N/C(=C(/C(Cl)=C(/Cl)Nc2ccccc2)[N+](=O)[O-])n2nnc3ccccc32)cc1`, the TGI is more than 100 µM in the test with A498 renal; 28 µM with HCT-15 colon; 40.6 µM in the test with HOP-92 NSCLC; more than 100 µM in the test on K-562 leukemia; more than 100 µM in the test on MCF7 breast; 87.5 µM with MDA-MB-435. The TGI in the test with MOLT-4 leukemia is more than 100 µM; with NCI-H460 lung, more than 100 µM; in the test with NCI-H522 lung, 39.5 µM; in the test on NCI/ADR-RES ovarian, 53.7 µM; in the test with SF-295 CNS, more than 100 µM; with SK-MEL-2 melanoma it was 73.7 µM. The TGI was 54.5 µM in the test on SK-MEL-28 melanoma, 47.2 µM in the test on SN12C renal, more than 100 µM in the test on TK-10 renal and 43.5 µM with UACC-62 melanoma.
`O=C1NC(=S)N/C1=C\c1cc2c(=O)c3ccccc3sc2s1`: the TGI in the test on A498 renal, with HCT-15 colon, in the test on IGROV1 ovarian, in the test on K-562 leukemia, in the test with LOX IMVI melanoma and with MCF7 breast was more than 100 µM throughout. The TGI was more than 100 µM in the test with MDA-MB-435; 69.5 µM in the test with MOLT-4 leukemia; more than 100 µM in the test on NCI-H460 lung; more than 100 µM with NCI-H522 lung; more than 100 µM with NCI/ADR-RES ovarian; more than 100 µM in the test on OVCAR-8 ovarian. The TGI with SF-295 CNS, in the test on SK-MEL-2 melanoma, in the test on SK-MEL-28 melanoma, in the test with SN12C renal, with TK-10 renal and in the test on UACC-62 melanoma was more than 100 µM in each case.
In the case of `c1cnn(C23C4C5C6C4C2C6C53)c1` (stereo unspecified), the TGI with A498 renal, in the test on CCRF-CEM leukemia, in the test on HCT-15 colon, with IGROV1 ovarian, in the test on K-562 leukemia and in the test with LOX IMVI melanoma was more than 100 µM in each case. In addition, the TGI in the test with MCF7 breast, in the test on MDA-MB-435, in the test on MOLT-4 leukemia, in the test with NCI-H460 lung, with NCI-H522 lung and in the test on NCI/ADR-RES ovarian was more than 100 µM throughout. The TGI in the test on OVCAR-8 ovarian, in the test with SF-295 CNS, in the test with SK-MEL-2 melanoma, in the test with SK-MEL-28 melanoma, in the test on SN12C renal and with TK-10 renal was more than 100 µM throughout.
For `Cn1c2ccccc2n2c3ncccc3c(=NCCCC(=O)O)c(C#N)c12`, the TGI in the test on A498 renal, in the test with CCRF-CEM leukemia, with HCT-15 colon, in the test on IGROV1 ovarian, in the test with K-562 leukemia and in the test on LOX IMVI melanoma was more than 100 µM each time. For the same compound, the TGI with MCF7 breast, in the test with MDA-MB-435, with MOLT-4 leukemia, with NCI-H460 lung, in the test with NCI-H522 lung and in the test on NCI/ADR-RES ovarian was more than 100 µM each time. In addition, the TGI with OVCAR-8 ovarian, with SF-295 CNS, in the test with SK-MEL-2 melanoma, in the test with SK-MEL-28 melanoma, in the test on SN12C renal and with UACC-62 melanoma was more than 100 µM in each case.
With `Oc1ccc2c(c1)CCc1c-2n(CCN2CCOCC2)c2ccc(O)cc12`, the TGI with A498 renal was 39.6 µM; in the test on CCRF-CEM leukemia it was more than 100 µM; in the test on HCT-15 colon, more than 100 µM; in the test on IGROV1 ovarian, 60.9 µM; in the test with K-562 leukemia, more than 100 µM; with LOX IMVI melanoma it was more than 100 µM. For the same compound, the TGI with MCF7 breast was more than 100 µM; with MDA-MB-435 it was more than 100 µM; in the test with MOLT-4 leukemia, more than 100 µM; in the test with NCI-H460 lung, more than 100 µM; in the test with NCI/ADR-RES ovarian, 48.3 µM; in the test on OVCAR-8 ovarian it was 57.1 µM. For the same compound, the TGI in the test with SF-295 CNS is more than 100 µM; with SK-MEL-2 melanoma, 70.9 µM; with SK-MEL-28 melanoma, more than 100 µM; with SN12C renal it was more than 100 µM; in the test with TK-10 renal, more than 100 µM; in the test with UACC-62 melanoma, 55.5 µM.
